Laboratory results from ChEMBL document CHEMBL1909626, “4-N-Hydroxy-4-[1-(sulfonyl)piperidin-4-yl]-butyramides as HDAC inhibitors” (Bioorg Med Chem Lett, 2011).
One block for each compound: values may come before it.

Experiments:
[1] = target: T1, Histone deacetylase (Homo sapiens) (UniProt Q13547+O15379+Q9UBN7+Q92769+Q9UQL6+Q8WUI4+Q9BY41+Q96DB2+P56524+Q9UKV0+Q969S8); details: HeLa, at 1 µM
Description: Inhibition of HDAC in human HeLa cell extract assessed as fluorophore release at 1 uM by fluorescence spectrophotometry

[2] = target: T1, Histone deacetylase (Homo sapiens); details: HeLa, at 10 µM
Description: Inhibition of HDAC in human HeLa cell extract assessed as fluorophore release at 10 uM by fluorescence spectrophotometry

[3] = target: T1, Histone deacetylase (Homo sapiens); details: HeLa, at 0.1 µM
Description: Inhibition of HDAC in human HeLa cell extract assessed as fluorophore release at 0.1 uM by fluorescence spectrophotometry

HCT-116 = test: Growth inhibition of human HCT116 cells after 5 days by alamar blue assay; format: functional; details: HCT-116, 120 h
Histone deacetylase = test: Inhibition of HDAC in human HeLa cell extract assessed as fluorophore release by fluorescence spectrophotometry; format: protein assay
[4] = Fraction unbound in plasma; format: ADME, cell-free
Liver = test: Metabolic stability in rat liver S9 fraction assessed as compound remaining; format: ADME, subcellular

inhibition [1]: 63%
inhibition [2]: 84%
inhibition [3]: 23%
GI50 (HCT-116): 2700 nM
SMILES: O=C(CCCC1CCN(S(=O)(=O)c2ccccc2)CC1)NO

inhibition [1]: 62%
inhibition [3]: 25%
SMILES: O=C(CCCC1CCN(S(=O)(=O)c2ccc(Cl)cc2)CC1)NO

inhibition [1]: 40%
inhibition [3]: 4%
SMILES: O=C(CCCC1CCN(S(=O)(=O)c2cccc(Cl)c2)CC1)NO

inhibition [1]: 61%
inhibition [2]: 83%
inhibition [3]: 24%
SMILES: Cc1cccc(S(=O)(=O)N2CCC(CCCC(=O)NO)CC2)c1

inhibition [1]: 57%
inhibition [3]: 13%
SMILES: O=C(CCCC1CCN(S(=O)(=O)c2cccc(C(F)(F)F)c2)CC1)NO

inhibition [1]: 68%
fraction unbound [4]: 0.02
inhibition [2]: 86%
inhibition [3]: 53%
Stability (Liver): 2%
IC50 (Histone deacetylase): 128 nM
GI50 (HCT-116): 1900 nM
SMILES: O=C(CCCC1CCN(S(=O)(=O)c2ccc3ccccc3c2)CC1)NO

inhibition [1]: 67%
inhibition [2]: 83%
inhibition [3]: 28%
SMILES: COc1cccc(S(=O)(=O)N2CCC(CCCC(=O)NO)CC2)c1

inhibition [1]: 69%
inhibition [3]: 29%
SMILES: Cc1ccccc1S(=O)(=O)N1CCC(CCCC(=O)NO)CC1

inhibition [1]: 51%
inhibition [3]: 9%
SMILES: CC(C)(C)c1ccc(S(=O)(=O)N2CCC(CCCC(=O)NO)CC2)cc1

inhibition [1]: 74%
inhibition [3]: 35%
SMILES: O=C(CCCC1CCN(S(=O)(=O)c2ccc(-c3cnco3)cc2)CC1)NO

inhibition [1]: 55%
inhibition [3]: 15%
SMILES: O=C(CCCC1CCN(S(=O)(=O)c2ccc(C(F)(F)F)cc2)CC1)NO

inhibition [1]: 71%
inhibition [3]: 28%
SMILES: Cc1ccc(S(=O)(=O)N2CCC(CCCC(=O)NO)CC2)cc1

inhibition [1]: 60%
inhibition [3]: 21%
SMILES: O=C(CCCC1CCN(S(=O)(=O)c2ccc(F)cc2)CC1)NO

inhibition [1]: 66%
inhibition [2]: 84%
inhibition [3]: 18%
IC50 (Histone deacetylase): 537 nM
SMILES: CC(C)c1ccc(S(=O)(=O)N2CCC(CCCC(=O)NO)CC2)cc1

The next lines start with the compound.

SMILES: O=C(CCCC1CCN(S(=O)(=O)Cc2ccccc2)CC1)NO
inhibition [1]: 58%
inhibition [2]: 71%
inhibition [3]: 17%
GI50 (HCT-116): 3200 nM

SMILES: O=C(CCCC1CCN(S(=O)(=O)c2ccc3c(c2)OCCO3)CC1)NO
inhibition [1]: 68%
inhibition [3]: 29%

SMILES: O=C(/C=C/CC1CCN(S(=O)(=O)c2ccccc2)CC1)NO
inhibition [1]: 48%
inhibition [2]: 78%
inhibition [3]: 19%

SMILES: CC1(C)CCc2cc(S(=O)(=O)N3CCC(CCCC(=O)NO)CC3)ccc2O1
inhibition [1]: 75%
inhibition [2]: 86%
inhibition [3]: 30%

SMILES: O=C(CCCC1CCN(S(=O)(=O)c2ccccc2C(F)(F)F)CC1)NO
inhibition [1]: 69%
inhibition [3]: 30%

SMILES: O=C(CCCC1CCN(S(=O)(=O)c2cccc(-c3cnco3)c2)CC1)NO
inhibition [1]: 75%
inhibition [2]: 85%
inhibition [3]: 38%
IC50 (Histone deacetylase): 213 nM

SMILES: Cc1cc(C)cc(S(=O)(=O)N2CCC(CCCC(=O)NO)CC2)c1
inhibition [1]: 65%
inhibition [2]: 86%
inhibition [3]: 22%

SMILES: CN(Cc1ccccc1)S(=O)(=O)N1CCC(CCCC(=O)NO)CC1
inhibition [1]: 56%
inhibition [3]: 29%

SMILES: O=C(CCCC1CCN(S(=O)(=O)c2ccc(-c3ccccc3)cc2)CC1)NO
inhibition [1]: 44%
inhibition [2]: 80%
inhibition [3]: 20%

SMILES: O=C(CCCC1CCN(S(=O)(=O)Nc2ccccc2)CC1)NO
inhibition [1]: 70%
inhibition [3]: 40%
GI50 (HCT-116): 2000 nM

SMILES: O=C(CCCC1CCN(S(=O)(=O)c2ccc3c(c2)CCO3)CC1)NO
inhibition [1]: 72%
inhibition [3]: 36%

SMILES: O=C(CCCC1CCN(S(=O)(=O)NCc2ccccc2)CC1)NO
inhibition [1]: 65%
inhibition [3]: 29%

SMILES: O=C(CCCC1CCN(S(=O)(=O)c2ccc3ncsc3c2)CC1)NO
inhibition [1]: 69%
inhibition [2]: 84%
inhibition [3]: 26%

SMILES: Cc1cc(S(=O)(=O)N2CCC(CCCC(=O)NO)CC2)cc2ccccc12
inhibition [1]: 82%
inhibition [2]: 86%
inhibition [3]: 48%
IC50 (Histone deacetylase): 124 nM
GI50 (HCT-116): 17300 nM

SMILES: CN(c1ccccc1)S(=O)(=O)N1CCC(CCCC(=O)NO)CC1
inhibition [1]: 48%
inhibition [3]: 19%

SMILES: O=C(CCCC1CCN(S(=O)(=O)c2ccccc2Cl)CC1)NO
inhibition [1]: 77%
inhibition [2]: 86%
inhibition [3]: 42%
IC50 (Histone deacetylase): 173 nM
GI50 (HCT-116): 2800 nM

SMILES: CN1CCOc2cc(S(=O)(=O)N3CCC(CCCC(=O)NO)CC3)ccc21
inhibition [1]: 71%
inhibition [3]: 32%

SMILES: O=C(CCCC1CCN(S(=O)(=O)c2cccc3ccccc23)CC1)NO
inhibition [1]: 80%
fraction unbound [4]: 0.03
inhibition [2]: 74%
inhibition [3]: 40%
Stability (Liver): 14%
IC50 (Histone deacetylase): 181 nM
GI50 (HCT-116): 1040 nM

SMILES: COc1ccc(S(=O)(=O)N2CCC(CCCC(=O)NO)CC2)c(OC)c1
inhibition [1]: 62%
inhibition [2]: 83%
inhibition [3]: 22%

SMILES: Cc1cc(C)c(S(=O)(=O)N2CCC(CCCC(=O)NO)CC2)c(C)c1
inhibition [1]: 75%
inhibition [3]: 32%

SMILES: O=C(CCCC1CCN(S(=O)(=O)c2ccccc2O)CC1)NO
inhibition [1]: 75%
inhibition [2]: 84%
inhibition [3]: 37%

SMILES: COc1ccc(S(=O)(=O)N2CCC(CCCC(=O)NO)CC2)cc1OC
inhibition [1]: 71%
inhibition [2]: 84%
inhibition [3]: 31%
IC50 (Histone deacetylase): 317 nM
